According to US11136320B2, “Fused ring derivative used as FGFR4 inhibitor” (JACOBIO PHARMACEUTICALS CO., LTD., priority 2019, dated 2021):

Columns and labels:
FGFR4 kinase [1] = target: T1, FGFR4 kinase (Homo sapiens (Human), UniProt P22455)
FGFR4 kinase [2] = target: T1, FGFR4 kinase; test: biochemical
PK analysis of rats = assay type: in vivo; settings: SD rats, p.o. (10 mg/kg); for AUC(0-t) / Cmax: rat, plasma, po; for AUC(0-t): read-out: Curve area AUC0-24 h; for Cmax: read-out: Drug concentration in blood Cmax
Experimental: In the present invention, the pharmacokinetics experiment of the compounds in rats was performed using the SD rats (Vitolihua).
(1) Mode of administration: single gavage administration and intravenous injection administration.
(2) Dosage: 10 mg/kg in the gavage administration, 3 mg/kg in the intravenous injection administration.
Gavage administration: before administration, 15 min, 30 min, 1 h, 2 h, 4 h, 6 h, 8 h, 24 h; […]
(4) Sample processing: 200 μL of orbital blood was collected at each sampling time point. After anticoagulation with heparin, the blood was centrifuged at 5500 rpm for 10 min, and 60 μL of the supernatant was taken and put into the refrigerator at −80° C. for waiting for testing.
Samples obtained after administration of Compound 1 were tested using 4000 LC-MS/MS analyzer, wherein, the chromatographic separation conditions for testing were:
Samples obtained after administration of Compound 7 were tested using 4000 LC-MS/MS analyzer, wherein, the chromatographic separation conditions for testing were:
Samples obtained after administration of Compound 16 were tested using 4000 LC-MS/MS analyzer, wherein, the chromatographic separation conditions for testing were: […]

[3] = system: Hepatoma cell Hep3B (high expression of FGFR4 and FGF19); test: Hepatoma cell proliferation inhibition experiment (MTS method); assay type: cell-based; settings: for IC50: Homo sapiens, Hep3B, 120 h incubation, read-out: Hep3B(IC50 μM)
Description: In this experiment, the MTS method was used to test the inhibitory effect of the compounds on the proliferation of Hepatoma cell Hep3B (high expression of FGFR4 and FGF19), and the half inhibitory concentration IC50 of the compounds to Hep3B was obtained. The Hep3B cell line was purchased from ATCC, and the complete culture medium of the Hep3B cell line was MEM+10% FBS+1% PS. MEM cell culture medium, fetal bovine serum, and trypsin were purchased from Gibco, cell culture flasks were purchased from Greiner, and disposable Cell Counting Plate and Taittinger Blue Solution were purchased from Bio-Rad.
(1) 100 μl Hepatoma cell Hep3B suspension was seeded in a 96-well cell culture plate, and the density of each well was 2.0×10^4 cells/ml.
(3) A mixture of MTS (3-(4,5-dimethylthiazol-2-yl)-5-(3-carboxymethoxyphenyl)-2-(4-sulfophenyl)-2H-tetrazolium)/PMS (phenazine methosulfate) was added into each well for coloration, and MTS/PMS in the mixture was at a ratio of 20:1 (ml:ml). 30 μl of the mixture was added into each well of the culture plate above mentioned in step (2), then the culture plate was incubated for 3 h in the incubator.
(5) The inhibition rate was calculated by the […];
(6) According to the inhibition rate of the different concentrations, the IC50 values of the compounds were obtained by curve fitting.

T1 sequence (P22455 22-802): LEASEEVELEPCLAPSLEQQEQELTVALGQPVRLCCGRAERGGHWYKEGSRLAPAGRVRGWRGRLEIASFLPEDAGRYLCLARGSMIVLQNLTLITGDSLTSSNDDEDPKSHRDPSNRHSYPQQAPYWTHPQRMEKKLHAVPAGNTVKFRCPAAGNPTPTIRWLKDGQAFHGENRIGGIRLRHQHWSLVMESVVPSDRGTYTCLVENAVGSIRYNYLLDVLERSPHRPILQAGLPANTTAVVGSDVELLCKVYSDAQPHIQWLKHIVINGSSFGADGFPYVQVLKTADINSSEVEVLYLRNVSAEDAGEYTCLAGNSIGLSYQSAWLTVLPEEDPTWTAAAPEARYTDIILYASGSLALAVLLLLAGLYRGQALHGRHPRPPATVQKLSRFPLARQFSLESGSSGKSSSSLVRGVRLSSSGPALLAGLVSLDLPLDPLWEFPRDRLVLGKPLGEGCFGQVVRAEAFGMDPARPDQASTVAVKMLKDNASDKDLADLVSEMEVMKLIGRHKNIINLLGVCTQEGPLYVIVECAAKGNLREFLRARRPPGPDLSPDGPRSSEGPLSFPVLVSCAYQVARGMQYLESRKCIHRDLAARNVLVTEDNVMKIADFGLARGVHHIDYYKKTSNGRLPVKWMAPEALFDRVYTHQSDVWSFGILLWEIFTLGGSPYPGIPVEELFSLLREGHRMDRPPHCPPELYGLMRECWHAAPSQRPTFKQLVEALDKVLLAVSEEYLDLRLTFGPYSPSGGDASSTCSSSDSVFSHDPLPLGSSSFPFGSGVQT

| SMILES | inhibitory effect on FGFR4 compared with the reference compound (FGFR4 kinase [1]) | IC50 (FGFR4 kinase [2]) [nM] | exposure amount AUC0-24 h and maximum drug concentration in blood Cmax compared with the reference compound (PK analysis of rats) | AUC(0-t) (PK analysis of rats) [ng·h/mL] | Cmax (PK analysis of rats) [ng/mL] | inhibitory effect on Hepatoma cell Hep3B compared with the reference compound [3] | IC50 [3] [µM] |
| --- | --- | --- | --- | --- | --- | --- | --- |
| CN1CCN(Cc2cc3c(nc2C=O)N(C(=O)Nc2cc(NC4CCSC4)c(C#N)cn2)CCC3)C(=O)C1 (stereo not drawn) [Compound 5, N-(5-cyano-4-((tetrahydrothiophene-3-yl)amino)pyridin-2-yl)-7-formyl-6-((4-methyl-2-oxopiperazin-1-yl)methyl)-3,4-dihydro-1,8-naphthyridine-1 (2H)-carboxamide] | better inhibitory effect on FGFR4 than the reference compound | 2 | significantly higher than the reference compound | 6730 | 1400 |  |  |
| CSC[C@@H](C)Nc1cc(NC(=O)N2CCCc3cc(CN4CCCC4=O)c(C=O)nc32)ncc1C#N [Compound 7, (R)—N-(5-cyano-4-((1-(methylthio)propan-2-yl)amino)pyridin-2-yl)-7-formyl-6-((2-oxopyrrolidine-1-yl)methyl)-3,4-dihydro-1,8-naphthyridine-1 (2H)-carboxamide] | better inhibitory effect on FGFR4 than the reference compound | 1.5 | significantly higher than the reference compound | 2850 | 736 | better inhibitory effect | 0.011 |
| CN1CCN(Cc2cc3c(nc2C=O)N(C(=O)Nc2cc(NCc4nccs4)c(C#N)cn2)CCC3)C(=O)C1 [Compound 56, N-(5-cyano-4-((thiazol-2-yl-methyl)amino)pyridin-2-yl)-7-formyl-6-((4-methyl-2-oxopiperazin-1-yl)methyl)-3,4-dihydro-1,8-naphthyridine-1(2H)-carboxamide] | better inhibitory effect on FGFR4 than the reference compound | 1.6 | significantly higher than the reference compound | 2010 | 548 | better inhibitory effect | 0.013 |
| CN1CCN(Cc2cc3c(nc2C=O)N(C(=O)Nc2cc(NCCSC(F)(F)F)c(C#N)cn2)CCC3)C(=O)C1 [Compound 62, N-(5-cyano-4-((2-((trifluoromethyl)thio)ethyl)amino)pyridin-2-yl)-7-formyl-6-((4-methyl-2-oxopiperazin-1-yl)methyl)-3,4-dihydro-1,8-naphthyridine-1(2H)-carboxamide] | better inhibitory effect on FGFR4 than the reference compound | 1.7 |  |  |  |  | 0.054 |
| CSCCCNc1cc(NC(=O)N2CCCc3cc(CN4CCN(C)CC4=O)c(C=O)nc32)ncc1C#N [Compound 64, N-(5-cyano-4-((3-(methylthio)propyl)amino)pyridin-2-yl)-7-formyl-6-((4-methyl-2-oxopiperazin-1-yl)methyl)-3,4-dihydro-1,8-naphthyridine-1(2H)-carboxamide] | better inhibitory effect on FGFR4 than the reference compound | 1.6 |  |  |  | better inhibitory effect | 0.018 |
| C[C@H](C[S+](C)[O-])Nc1cc(NC(=O)N2CCCc3cc(CN4CCN(C)CC4=O)c(C=O)nc32)ncc1C#N (stereo partly drawn) [Compound 69, N-(5-cyano-4-(((2R)-1-(methylsulfinyl)propan-2-yl)amino)pyridin-2-yl)-7-formyl-6-((4-methyl-2-oxopiperazin-1-yl)methyl)-3,4-dihydro-1,8-naphthyridine-1(2H)-carboxamide] | better inhibitory effect on FGFR4 than the reference compound | 2.1 |  |  |  |  | 0.067 |
| CN1CCN(Cc2cc3c(nc2C=O)N(C(=O)Nc2cc(NCCS(C)(=O)=O)c(C#N)cn2)CCC3)C(=O)C1.Cl [Compound 72, N-(5-cyano-4-((2-(methyl-sulfonyl)ethyl)amino)pyridin-2-yl)-7-formyl-6-((4-methyl-2-oxopiperazin-1-yl)methyl)-3,4-dihydro-1,8-naphthyridine-1(2H)-carboxamide hydrochloride] | better inhibitory effect on FGFR4 than the reference compound | 2 |  |  |  |  | 0.282 |
| CSCCNc1cc(NC(=O)N2CCCc3cc(CN(C)C(=O)C4CCOCC4)c(C=O)nc32)ncc1C#N.Cl [Compound 73, N-(5-cyano-4-((2-(methyhthio)ethyl)amino)pyridin-2-yl)-7-formyl-6-((N-methyltetrahydro-2H-pyran-4-carboxamido)methyl)-3,4-dihydro-1,8-naphthyridine-1(2H)-carboxamide hydrochloride] | better inhibitory effect on FGFR4 than the reference compound | 2.3 |  |  |  |  | 0.039 |
| CSCCNc1cc(NC(=O)N2CCCc3cc(CN(C)C(=O)[C@@H]4CCCO4)c(C=O)nc32)ncc1C#N.Cl [Compound 75, (S)-N-(5-cyano-4-((2-(methylthio)ethyl)amino)pyridin-2-yl)-7-formyl-6-((N-methyltetrahydrofuran-2-carboxamido)methyl)-3,4-dihydro-1,8-naphthyridine-1(2H)-carboxamide hydrochloride] | better inhibitory effect on FGFR4 than the reference compound | 1.8 |  |  |  |  | 0.028 |
| CSCCNc1cc(NC(=O)N2CCCc3cc(CN(C)C(=O)C4CCOC4)c(C=O)nc32)ncc1C#N.Cl (stereo not drawn) [Compound 76, N-(5-cyano-4-((2-(methylthio)ethyl)amino)pyridin-2-yl)-7-formyl-6-((N-methyltetrahydrofuran-3-carboxamido)methyl)-3,4-dihydro-1,8-naphthyridine-1(2H)-carboxamide hydrochloride] | better inhibitory effect on FGFR4 than the reference compound | 2.1 |  |  |  | better inhibitory effect | 0.006 |
| C[C@H](CS(C)(=O)=O)Nc1cc(NC(=O)N2CCCc3cc(CN4CCN(C)CC4=O)c(C=O)nc32)ncc1C#N [Compound 83, N-(5-cyano-4-(((2R)-1-(methyl-sulfonyl)propan-2-yl)amino)pyridin-2-yl)-7-formyl-6-((4-methyl-2-oxopiperazin-1-yl)methyl)-3,4-dihydro-1,8-naphthyridine-1(2H)-carboxamide] | better inhibitory effect on FGFR4 than the reference compound | 2.1 |  |  |  |  | 0.068 |
